Results from ChEMBL document CHEMBL4043216, “Design and synthesis of benzoacridines as estrogenic and anti-estrogenic agents” (Bioorg Med Chem, 2017).
Structures can show the parent of a compound that is named as a salt. Active and inactive are the calls of the source. No cut-off for these calls is given here.

Legend:
in vitro = details: human
Description: Cytotoxicity in human MCF7 cells assessed as maximum drug level not causing reduction in cell viability incubated for 6 days by acid red-52 staining based assay

Estrogen receptor [1] = molecular target: T1, Estrogen receptor (Homo sapiens, UniProt P03372)
T1 sequence (P03372 whole entry): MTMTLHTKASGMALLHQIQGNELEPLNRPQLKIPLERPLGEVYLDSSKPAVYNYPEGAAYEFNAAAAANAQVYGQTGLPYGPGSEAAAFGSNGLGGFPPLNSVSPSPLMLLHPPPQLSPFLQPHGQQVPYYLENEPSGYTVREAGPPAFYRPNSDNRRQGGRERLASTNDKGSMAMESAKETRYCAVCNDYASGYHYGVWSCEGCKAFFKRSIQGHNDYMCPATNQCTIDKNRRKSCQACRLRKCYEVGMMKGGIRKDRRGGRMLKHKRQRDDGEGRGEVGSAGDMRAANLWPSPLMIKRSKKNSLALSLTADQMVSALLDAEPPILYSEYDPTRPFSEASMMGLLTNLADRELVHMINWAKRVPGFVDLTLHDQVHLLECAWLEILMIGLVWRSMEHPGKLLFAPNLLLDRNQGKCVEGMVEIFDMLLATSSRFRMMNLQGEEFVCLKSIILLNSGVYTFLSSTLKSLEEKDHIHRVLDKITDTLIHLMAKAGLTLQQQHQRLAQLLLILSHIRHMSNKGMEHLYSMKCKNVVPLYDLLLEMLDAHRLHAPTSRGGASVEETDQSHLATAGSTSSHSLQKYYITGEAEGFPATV
Description: Displacement of [3H]E2 from GST-fused ERalpha-LBD (unknown origin) expressed in Escherichia coli BL21 incubated for 1 hr by liquid scintillation counting method

[2] = molecular target: T2, Estrogen-related receptor gamma (Homo sapiens, UniProt P62508)
T2 sequence (P62508 whole entry): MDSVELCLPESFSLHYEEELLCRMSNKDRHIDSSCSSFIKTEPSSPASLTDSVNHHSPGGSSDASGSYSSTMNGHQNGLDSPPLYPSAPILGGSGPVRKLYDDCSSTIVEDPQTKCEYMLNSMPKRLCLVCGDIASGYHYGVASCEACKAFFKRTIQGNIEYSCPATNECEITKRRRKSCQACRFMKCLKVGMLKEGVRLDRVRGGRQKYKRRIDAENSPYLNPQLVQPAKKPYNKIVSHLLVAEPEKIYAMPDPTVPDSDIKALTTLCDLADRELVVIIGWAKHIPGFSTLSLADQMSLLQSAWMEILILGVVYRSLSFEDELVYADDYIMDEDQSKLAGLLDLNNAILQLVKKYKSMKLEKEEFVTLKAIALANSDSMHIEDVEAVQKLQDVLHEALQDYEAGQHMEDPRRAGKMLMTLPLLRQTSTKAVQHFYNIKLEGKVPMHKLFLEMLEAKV
Description: Binding affinity to human ERRgamma

Estrogen receptor beta [3] = molecular target: T3, Estrogen receptor beta (Homo sapiens, UniProt Q92731)
T3 sequence (Q92731 whole entry): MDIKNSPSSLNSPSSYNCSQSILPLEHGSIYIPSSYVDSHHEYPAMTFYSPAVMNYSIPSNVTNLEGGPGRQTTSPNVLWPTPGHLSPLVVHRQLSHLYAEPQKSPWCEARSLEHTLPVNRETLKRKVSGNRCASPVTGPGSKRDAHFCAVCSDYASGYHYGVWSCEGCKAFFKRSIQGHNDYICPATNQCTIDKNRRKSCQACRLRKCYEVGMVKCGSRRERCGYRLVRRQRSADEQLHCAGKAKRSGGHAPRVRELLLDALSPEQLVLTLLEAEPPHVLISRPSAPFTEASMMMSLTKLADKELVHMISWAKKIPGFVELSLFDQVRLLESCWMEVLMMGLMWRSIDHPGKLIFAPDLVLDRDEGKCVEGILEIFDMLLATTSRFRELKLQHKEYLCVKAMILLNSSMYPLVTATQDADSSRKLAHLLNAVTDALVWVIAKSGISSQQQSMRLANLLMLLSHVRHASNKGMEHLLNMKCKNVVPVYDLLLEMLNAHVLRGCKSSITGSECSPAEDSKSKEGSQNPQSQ
Description: (§1) Displacement of [3H]E2 from GST-fused ERbeta-LBD (unknown origin) expressed in Escherichia coli BL21 incubated for 1 hr by liquid scintillation counting method

MCF7 = test: cells; type: functional, cell-based; details: Homo sapiens, MCF7, 144 h
Description: Inhibition of 17-beta estradiol-induced cell proliferation in human MCF7 cells incubated for 6 days by acid red-52 staining based assay

Estrogen receptor beta [4] = molecular target: T3, Estrogen receptor beta; remark: listed apart in the source
Description: as §1

Estrogen receptor beta [5] = molecular target: T3, Estrogen receptor beta; test: Antagonist activity at full length ERbeta (unknown origin) expressed in human HeLa cells incubated for 24 hrs by ERE-driven luciferase reporter gene assay
Estrogen receptor [6] = molecular target: T1, Estrogen receptor; remark: listed apart in the source
Description: Agonist activity at full length ERalpha (unknown origin) expressed in human HeLa cells incubated for 24 hrs by ERE-driven luciferase reporter gene assay

Estrogen receptor beta [7] = molecular target: T3, Estrogen receptor beta; test: Antagonist activity at full length ERbeta (unknown origin) expressed in human HeLa cells assessed as reduction in 17-beta estradiol-induced response at 10^-5M incubated for 24 hrs by ERE-driven luciferase reporter gene assay relative to untreated control; type: cell-based
[8] = molecular target: T4, Estrogen receptor (Homo sapiens) (UniProt P03372); test: Antagonist activity at full length ERalpha (unknown origin) expressed in human HeLa cells up to 10 uM incubated for 24 hrs by ERE-driven luciferase reporter gene assay; type: cell-based
T4 sequence (whole entry): T1 sequence (P03372 whole entry)

Estrogen receptor [9] = molecular target: T1, Estrogen receptor; remark: listed apart in the source
Description: Antagonist activity at full length ERalpha (unknown origin) expressed in human HeLa cells incubated for 24 hrs by ERE-driven luciferase reporter gene assay

SMILES: c1ccc(-c2c3ccccc3nc3ccccc23)cc1
- MNTC at 144 h (in vitro; MCF7 cells): > 100 µM

SMILES: N#Cc1c2ccccc2cc2c(-c3ccccc3)c3ccccc3nc12
- MNTC at 144 h (in vitro; MCF7 cells): > 100 µM

SMILES: Cl.Clc1ccc2c(-c3ccccc3)c3cc4ccccc4cc3nc2c1
- IC50 (Estrogen receptor [1]): 1650 nM
- IC50 [2]: Not Active
- MNTC at 144 h (in vitro; MCF7 cells): > 100 µM
- IC50 (Estrogen receptor beta [3]): 1980 nM
- IC50 (MCF7): 19600 nM

SMILES: COc1ccc2c(-c3ccccc3)c3cc4ccccc4cc3nc2c1
- MNTC at 144 h (in vitro; MCF7 cells): > 1 µM

SMILES: COc1ccc2c(-c3ccc(C(F)(F)F)cc3)c3cc4cc(C(F)(F)F)ccc4cc3nc2c1
- MNTC at 144 h (in vitro; MCF7 cells): > 10 µM

SMILES: FC(F)(F)c1ccc(-c2c3ccccc3nc3cc4ccc(C(F)(F)F)cc4cc23)cc1
- MNTC at 144 h (in vitro; MCF7 cells): > 10 µM
- IC50 (MCF7): 9240 nM

SMILES: Cl.FC(F)(F)c1cccc2c(-c3ccccc3)c3cc4ccccc4cc3nc12
- IC50 (Estrogen receptor [1]): 2650 nM
- IC50 [2]: Not Active
- MNTC at 144 h (in vitro; MCF7 cells): > 10 µM
- IC50 (Estrogen receptor beta [4]): Not Active
- IC50 (MCF7): 3980 nM

SMILES: Cl.Oc1ccc2cc3nc4ccccc4c(-c4ccccc4)c3cc2c1
- inhibition (Estrogen receptor beta [5]): Active
- EC50 (Estrogen receptor [6]): 1440 nM
- fold change (FC) (Estrogen receptor beta [7]): 6
- IC50 (Estrogen receptor [1]): 169 nM
- IC50 [2]: Not Active
- inhibition [8]: inactive
- MNTC at 144 h (in vitro; MCF7 cells): > 10 µM
- IC50 (Estrogen receptor beta [3]): 154 nM

SMILES: FC(F)(F)c1ccc(-c2c3ccc(C(F)(F)F)cc3nc3cc4ccc(C(F)(F)F)cc4cc23)cc1
- MNTC at 144 h (in vitro; MCF7 cells): > 1 µM

SMILES: Cl.c1ccc(-c2c3ccccc3nc3cc4ccccc4cc23)cc1
- IC50 (Estrogen receptor [1]): 915 nM
- IC50 [2]: Not Active
- MNTC at 144 h (in vitro; MCF7 cells): > 10 µM
- IC50 (Estrogen receptor [9]): 9390 nM
- IC50 (Estrogen receptor beta [3]): 1690 nM
- IC50 (MCF7): 4950 nM

SMILES: Cl.FC(F)(F)c1ccc2cc3nc4ccccc4c(-c4ccccc4)c3cc2c1
- IC50 (Estrogen receptor [1]): 3510 nM
- IC50 [2]: Not Active
- MNTC at 144 h (in vitro; MCF7 cells): > 10 µM
- IC50 (Estrogen receptor [9]): 5340 nM
- IC50 (Estrogen receptor beta [4]): Not Active
- IC50 (MCF7): 9240 nM

SMILES: COc1ccc2cc3nc4ccccc4c(-c4ccccc4)c3cc2c1
- MNTC at 144 h (in vitro; MCF7 cells): > 10 µM

SMILES: Cl.Clc1c2ccccc2cc2c(-c3ccccc3)c3ccccc3nc12
- IC50 (Estrogen receptor [1]): 1680 nM
- IC50 [2]: Not Active
- MNTC at 144 h (in vitro; MCF7 cells): > 10 µM
- IC50 (Estrogen receptor beta [3]): 2520 nM
- IC50 (MCF7): 9070 nM

SMILES: CC/C(=C(\c1ccccc1)c1ccc(OCCN(C)C)cc1)c1ccccc1 [TAMOXIFEN CITRATE]
- MNTC at 144 h (in vitro; mcf7): > 10 µM

SMILES: COc1cccc2c(-c3ccccc3)c3cc4ccccc4cc3nc12
- MNTC at 144 h (in vitro; MCF7 cells): > 10 µM

SMILES: c1ccc2nc3ccccc3cc2c1
- MNTC at 144 h (in vitro; MCF7 cells): > 10 µM

SMILES: Cl.Oc1cccc2c(-c3ccccc3)c3cc4ccccc4cc3nc12
- EC50 (Estrogen receptor [6]): 1330 nM
- IC50 (Estrogen receptor [1]): 1080 nM
- IC50 [2]: Not Active
- inhibition [8]: inactive
- MNTC at 144 h (in vitro; MCF7 cells): > 10 µM
- IC50 (Estrogen receptor beta [3]): 939 nM

SMILES: FC(F)(F)c1ccc2nc3cc4ccccc4cc3c(-c3ccccc3)c2c1
- MNTC at 144 h (in vitro; MCF7 cells): > 10 µM

SMILES: Cl.Oc1ccc2c(-c3ccccc3)c3cc4ccccc4cc3nc2c1
- inhibition (Estrogen receptor beta [5]): Active
- EC50 (Estrogen receptor [6]): 7400 nM
- IC50 (Estrogen receptor [1]): 294 nM
- IC50 [2]: Not Active
- inhibition [8]: inactive
- MNTC at 144 h (in vitro; MCF7 cells): > 1 µM
- IC50 (Estrogen receptor beta [3]): 306 nM

SMILES: c1ccc(-c2c3ccccc3nc3nc4ccccc4cc23)cc1
- IC50 (MCF7): 951 nM
